Test systems include A498 renal; MALME-3M melanoma; LOX IMVI melanoma; NCI-H23 lung; MDA-MB-435; NCI-H522 lung; M14 melanoma; MDA-MB-231 breast; BT-549 breast; HT29 colon.
Common to all, as to experiment: NCI anticancer screen, dose series, 48 h

SMILES strings stand for the structures.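 Following 48 hours of exposure in 96-well plates, responses at five concentrations were used to interpolate endpoints linearly. At the GI50, growth is halved. TGI: total growth inhibition.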 Bounds are passed on as bounds.

As to `CCOC(=O)Nc1nc2ccc(OCC)cc2s1`, the GI50 was greater than 100 µM in the experiment with A498 renal; greater than 100 µM in the experiment with MALME-3M melanoma; 41.7 µM in the experiment with LOX IMVI melanoma; greater than 100 µM in the experiment on NCI-H23 lung; 0.773 µM with MDA-MB-435; 6.49 µM in the experiment on NCI-H522 lung. For the same molecule, the GI50 in the experiment with M14 melanoma was 6.84 µM; in the experiment on MDA-MB-231 breast, greater than 100 µM; in the experiment on BT-549 breast it was greater than 100 µM; with HT29 colon, 3.98 µM. For the same molecule, the TGI with A498 renal is greater than 100 µM; in the experiment with MALME-3M melanoma, greater than 100 µM; in the experiment on LOX IMVI melanoma, greater than 100 µM; in the experiment on NCI-H23 lung, greater than 100 µM; in the experiment with MDA-MB-435, 3.71 µM; in the experiment on NCI-H522 lung it was greater than 100 µM. Further, the TGI in the experiment with M14 melanoma, in the experiment on MDA-MB-231 breast, in the experiment with BT-549 breast and with HT29 colon was greater than 100 µM each time.
`CC1=C(C(=O)Nc2ccc(F)c(Cl)c2)C(c2ccc(Cl)cc2)NC(=O)N1` (stereo not drawn): the GI50 with A498 renal was 13.9 µM; with MALME-3M melanoma, 16.8 µM; in the experiment on LOX IMVI melanoma, 16.6 µM; in the experiment with NCI-H23 lung, 17.4 µM; in the experiment with MDA-MB-435 it was 22.8 µM; in the experiment with NCI-H522 lung, 17.8 µM. The GI50 in the experiment with M14 melanoma was 16.5 µM; in the experiment on MDA-MB-231 breast, 13.7 µM; in the experiment on BT-549 breast, 14.6 µM; with HT29 colon, 14.3 µM. Moreover, the TGI was determined as 29 µM in the experiment with A498 renal; 38.5 µM in the experiment with MALME-3M melanoma; 32 µM in the experiment on LOX IMVI melanoma; 33.8 µM in the experiment with NCI-H23 lung; 56.4 µM in the experiment with MDA-MB-435; 34.9 µM in the experiment on NCI-H522 lung. Besides, the TGI in the experiment on M14 melanoma was determined as 33.6 µM; in the experiment with MDA-MB-231 breast, 27.1 µM; in the experiment on BT-549 breast, 32.6 µM; with HT29 colon, 27.8 µM.
As for `COc1cc2c(c(OC)c1O)C(=O)C(OC)C(c1ccc(O)c(O)c1)O2` (stereo not drawn), the GI50 in the experiment with A498 renal was 0.228 µM; in the experiment on MALME-3M melanoma it was 48.3 µM; in the experiment with LOX IMVI melanoma, 0.352 µM; in the experiment with NCI-H23 lung, 0.385 µM; with MDA-MB-435 it was 0.126 µM; in the experiment with NCI-H522 lung, 0.0599 µM. The GI50 is 0.155 µM in the experiment with M14 melanoma, 0.554 µM in the experiment with MDA-MB-231 breast, 0.362 µM in the experiment with BT-549 breast and 6.1 µM with HT29 colon. The TGI in the experiment on A498 renal is 0.812 µM; with MALME-3M melanoma, greater than 100 µM; in the experiment on LOX IMVI melanoma, greater than 100 µM; with NCI-H23 lung, greater than 100 µM; in the experiment on M14 melanoma it was greater than 100 µM; in the experiment with MDA-MB-231 breast, greater than 100 µM. Further, the TGI with BT-549 breast is greater than 100 µM; in the experiment on HT29 colon, greater than 67.7 µM.
As to `CNC(=O)c1ccccc1Nc1nc(Nc2ccc(N3CCOCC3)cc2OC)ncc1Cl`, the GI50 was 0.488 µM with A498 renal; 0.405 µM with MALME-3M melanoma; 0.401 µM in the experiment with LOX IMVI melanoma; 0.571 µM with NCI-H23 lung; 0.629 µM in the experiment on MDA-MB-435; 0.764 µM with NCI-H522 lung. Further, the GI50 in the experiment with M14 melanoma was 0.541 µM; in the experiment with MDA-MB-231 breast, 1.09 µM; in the experiment on BT-549 breast, 2.58 µM; in the experiment on HT29 colon, 0.0714 µM. Besides, the TGI was 2.39 µM in the experiment with A498 renal; 16.9 µM in the experiment on MALME-3M melanoma; 3.17 µM in the experiment on LOX IMVI melanoma; greater than 43.8 µM in the experiment with NCI-H23 lung; greater than 66.4 µM in the experiment with MDA-MB-435; 9.66 µM in the experiment with NCI-H522 lung. The TGI is greater than 62.8 µM with M14 melanoma, 5.26 µM with MDA-MB-231 breast, greater than 39.1 µM with BT-549 breast and 4.73 µM in the experiment with HT29 colon.
For `COc1ccc(-c2cc(-c3ccc(Nc4nc(Nc5ccccc5)nc(Nc5ccc(Cl)cc5)n4)cc3)nc(N)c2C#N)cc1`, the GI50 in the experiment on A498 renal was 2.49 µM; with MALME-3M melanoma it was 0.801 µM; with LOX IMVI melanoma, 0.837 µM; in the experiment on NCI-H23 lung, 1.72 µM; in the experiment on MDA-MB-435, 0.962 µM; in the experiment with NCI-H522 lung it was 1.16 µM. Also, the GI50 with M14 melanoma was 0.887 µM; in the experiment with MDA-MB-231 breast, 1.01 µM; in the experiment on BT-549 breast, 0.822 µM; in the experiment with HT29 colon it was 1.1 µM. Also, the TGI with A498 renal is 11.1 µM; with MALME-3M melanoma, 1.8 µM; in the experiment on LOX IMVI melanoma, 1.58 µM; in the experiment with NCI-H23 lung, 13.6 µM; in the experiment on MDA-MB-435, 2.16 µM; with NCI-H522 lung, 3.38 µM. Moreover, the TGI stood at 1.81 µM with M14 melanoma, 2.46 µM in the experiment on MDA-MB-231 breast, 2.49 µM in the experiment on BT-549 breast and 2.96 µM in the experiment on HT29 colon.
In the case of `CC1=C(C#N)C23C(=O)c4ccccc4C(O)=C2C(=O)C=CC3(O)N1Cc1ccccc1` (stereo not drawn), the GI50 with A498 renal was greater than 100 µM; with MALME-3M melanoma, 22 µM; in the experiment on LOX IMVI melanoma, 33 µM; in the experiment on NCI-H23 lung, 29.9 µM; in the experiment on MDA-MB-435, 38.6 µM; in the experiment on NCI-H522 lung it was 22.9 µM. Also, the GI50 with M14 melanoma was 32.8 µM; in the experiment with MDA-MB-231 breast, 44.4 µM; with BT-549 breast, 36.2 µM; with HT29 colon, 43.7 µM. Further, the TGI in the experiment with A498 renal was greater than 100 µM; in the experiment with MALME-3M melanoma it was 47.1 µM; with LOX IMVI melanoma, greater than 100 µM; with NCI-H23 lung, greater than 100 µM; with MDA-MB-435, greater than 100 µM; in the experiment with NCI-H522 lung it was 58.1 µM. Further, the TGI in the experiment on M14 melanoma, with MDA-MB-231 breast, with BT-549 breast and in the experiment with HT29 colon was greater than 100 µM in each case.
Consider `COc1cc2nc(-c3ccc(C(F)(F)F)cc3)cc(OCCCN3CCC(O)CC3)c2cc1OC`, for which the GI50 is 2.37 µM with A498 renal; 2.65 µM with MALME-3M melanoma; 0.19 µM in the experiment on LOX IMVI melanoma; 6.16 µM with NCI-H23 lung; 2.76 µM in the experiment on MDA-MB-435; 4.15 µM in the experiment on NCI-H522 lung. For the same molecule, the GI50 was 0.535 µM with M14 melanoma, 0.919 µM with MDA-MB-231 breast, 6.59 µM in the experiment on BT-549 breast and 0.486 µM in the experiment on HT29 colon. Besides, the TGI in the experiment on A498 renal was 10.3 µM; in the experiment on MALME-3M melanoma it was 11.8 µM; in the experiment with LOX IMVI melanoma, 0.447 µM; with NCI-H23 lung, 21 µM; in the experiment on MDA-MB-435, 9.31 µM; with NCI-H522 lung, 19.3 µM. Besides, the TGI with M14 melanoma worked out at 2.26 µM; with MDA-MB-231 breast, 15.6 µM; in the experiment on BT-549 breast, 22.1 µM; in the experiment with HT29 colon, 10.4 µM.

Source of the values: PubChem BioAssay (NCI).
